# Results published in patent US11420958B2, “Aryl and heteroaryl substituted indole compounds” (BRISTOL-MYERS SQUIBB COMPANY, priority 2017, dated 2022).
# Assays:
# Assay type in all cases: cell-based
# human TLR7 = human TLR7 (Homo sapiens (Human), UniProt Q9NYK1); assay: TLR7 inhibition reporter assay (HEK-Blue, SEAP); conditions: HEK-Blue cells overexpressing human TLR7, gardiquimod 7.5 μM stimulation
# Summary of the method: (§1)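 Cells are treated with compound over a 0.05 nM–50 μM final range for 30 min at room temperature before agonist addition: gardiquimod at 7.5 μM for TLR7, R848 at 15.9 μM for TLR8, ODN2006 at 5 nM for TLR9. SEAP is measured after 22 h at 37 °C.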
# human TLR9 = human TLR9 (Homo sapiens (Human), UniProt Q9NR96); assay: TLR9 inhibition reporter assay (HEK-Blue, SEAP); conditions: HEK-Blue cells overexpressing human TLR9, ODN2006 5 nM stimulation
# Summary of the method: as §1
# human TLR8 = human TLR8 (Homo sapiens (Human), UniProt Q9NR97); assay: TLR8 inhibition reporter assay (HEK-Blue, SEAP); conditions: HEK-Blue cells overexpressing human TLR8, R848 15.9 μM stimulation
# Summary of the method: as §1
# human TLR7, sequence (Q9NYK1 27-1049): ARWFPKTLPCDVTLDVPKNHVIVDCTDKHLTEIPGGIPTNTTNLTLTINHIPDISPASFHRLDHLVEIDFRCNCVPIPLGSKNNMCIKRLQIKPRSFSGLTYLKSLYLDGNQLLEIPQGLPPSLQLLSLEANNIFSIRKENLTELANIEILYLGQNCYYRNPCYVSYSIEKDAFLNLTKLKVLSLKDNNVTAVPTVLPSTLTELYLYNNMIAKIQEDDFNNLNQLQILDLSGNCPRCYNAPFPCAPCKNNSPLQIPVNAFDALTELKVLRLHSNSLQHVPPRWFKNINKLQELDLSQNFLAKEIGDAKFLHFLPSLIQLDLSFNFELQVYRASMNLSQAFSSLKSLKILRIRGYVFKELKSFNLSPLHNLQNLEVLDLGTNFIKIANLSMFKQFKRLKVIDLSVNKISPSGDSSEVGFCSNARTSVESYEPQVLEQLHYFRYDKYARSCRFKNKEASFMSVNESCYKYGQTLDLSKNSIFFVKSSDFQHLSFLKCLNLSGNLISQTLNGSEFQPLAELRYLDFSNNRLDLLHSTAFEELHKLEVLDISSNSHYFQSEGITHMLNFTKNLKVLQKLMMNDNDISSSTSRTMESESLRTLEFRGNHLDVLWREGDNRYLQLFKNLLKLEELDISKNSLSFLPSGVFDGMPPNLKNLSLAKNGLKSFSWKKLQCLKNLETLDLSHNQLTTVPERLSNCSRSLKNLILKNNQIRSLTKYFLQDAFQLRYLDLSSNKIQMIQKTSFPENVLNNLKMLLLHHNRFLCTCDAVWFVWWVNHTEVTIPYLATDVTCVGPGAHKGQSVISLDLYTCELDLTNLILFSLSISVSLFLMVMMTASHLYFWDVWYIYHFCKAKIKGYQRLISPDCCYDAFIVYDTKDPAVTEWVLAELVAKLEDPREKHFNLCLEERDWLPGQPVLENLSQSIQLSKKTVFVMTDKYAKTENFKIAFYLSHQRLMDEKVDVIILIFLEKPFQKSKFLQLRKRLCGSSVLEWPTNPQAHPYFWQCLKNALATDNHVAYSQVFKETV
# human TLR8, sequence (Q9NR97 27-1041): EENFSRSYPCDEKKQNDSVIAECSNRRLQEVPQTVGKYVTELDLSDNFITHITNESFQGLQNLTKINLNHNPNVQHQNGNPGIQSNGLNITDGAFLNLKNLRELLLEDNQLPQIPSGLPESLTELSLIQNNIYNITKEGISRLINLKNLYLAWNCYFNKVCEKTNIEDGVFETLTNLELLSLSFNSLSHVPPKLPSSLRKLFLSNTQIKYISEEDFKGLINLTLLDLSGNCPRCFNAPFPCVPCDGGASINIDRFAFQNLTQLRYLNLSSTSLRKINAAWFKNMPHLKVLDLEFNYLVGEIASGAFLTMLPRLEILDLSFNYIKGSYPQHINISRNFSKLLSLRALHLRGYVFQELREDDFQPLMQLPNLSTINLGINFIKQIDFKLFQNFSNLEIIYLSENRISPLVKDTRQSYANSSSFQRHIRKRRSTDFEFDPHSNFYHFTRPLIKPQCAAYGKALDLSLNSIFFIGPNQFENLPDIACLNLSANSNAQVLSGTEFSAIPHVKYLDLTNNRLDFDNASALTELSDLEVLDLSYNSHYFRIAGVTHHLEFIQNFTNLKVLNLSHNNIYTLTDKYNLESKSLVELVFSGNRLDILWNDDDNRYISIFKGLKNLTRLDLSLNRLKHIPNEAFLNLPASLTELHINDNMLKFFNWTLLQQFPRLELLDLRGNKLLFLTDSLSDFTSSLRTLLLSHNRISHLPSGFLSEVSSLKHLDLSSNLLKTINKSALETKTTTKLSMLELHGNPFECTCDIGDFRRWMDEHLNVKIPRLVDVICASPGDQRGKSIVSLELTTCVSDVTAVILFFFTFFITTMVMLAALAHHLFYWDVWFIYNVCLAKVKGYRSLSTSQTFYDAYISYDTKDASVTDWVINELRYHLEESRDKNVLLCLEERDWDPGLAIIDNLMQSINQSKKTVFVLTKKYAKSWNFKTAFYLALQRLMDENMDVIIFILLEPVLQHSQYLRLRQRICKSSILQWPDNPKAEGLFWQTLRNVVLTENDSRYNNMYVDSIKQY
# human TLR9, sequence (Q9NR96 26-1032): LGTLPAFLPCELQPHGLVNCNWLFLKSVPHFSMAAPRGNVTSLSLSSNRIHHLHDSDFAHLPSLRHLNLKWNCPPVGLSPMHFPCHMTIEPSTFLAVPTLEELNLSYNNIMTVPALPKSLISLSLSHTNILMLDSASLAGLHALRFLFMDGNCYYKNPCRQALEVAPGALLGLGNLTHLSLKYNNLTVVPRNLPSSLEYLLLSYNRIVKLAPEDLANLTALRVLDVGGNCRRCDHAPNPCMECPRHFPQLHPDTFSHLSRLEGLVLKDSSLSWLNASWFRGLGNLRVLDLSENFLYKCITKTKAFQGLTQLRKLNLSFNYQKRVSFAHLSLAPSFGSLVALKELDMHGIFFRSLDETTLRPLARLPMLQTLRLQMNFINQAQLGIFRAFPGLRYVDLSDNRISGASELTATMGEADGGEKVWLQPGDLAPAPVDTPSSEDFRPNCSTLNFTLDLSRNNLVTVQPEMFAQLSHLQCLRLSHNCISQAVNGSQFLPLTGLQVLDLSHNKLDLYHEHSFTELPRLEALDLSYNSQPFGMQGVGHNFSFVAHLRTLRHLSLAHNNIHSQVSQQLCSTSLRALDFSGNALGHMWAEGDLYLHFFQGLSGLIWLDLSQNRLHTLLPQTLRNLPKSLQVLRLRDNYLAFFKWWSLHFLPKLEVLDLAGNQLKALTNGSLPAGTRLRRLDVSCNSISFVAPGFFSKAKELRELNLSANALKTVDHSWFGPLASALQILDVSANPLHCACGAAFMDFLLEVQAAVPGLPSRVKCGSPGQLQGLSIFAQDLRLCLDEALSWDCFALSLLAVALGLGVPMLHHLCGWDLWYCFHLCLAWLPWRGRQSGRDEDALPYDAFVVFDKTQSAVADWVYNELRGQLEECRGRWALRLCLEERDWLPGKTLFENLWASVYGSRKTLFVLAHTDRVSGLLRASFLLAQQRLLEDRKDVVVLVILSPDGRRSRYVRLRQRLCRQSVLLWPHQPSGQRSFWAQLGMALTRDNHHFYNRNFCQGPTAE
Structure (SMILES),IC50 (human TLR7) [nM],IC50 (human TLR9) [nM],IC50 (human TLR8) [nM]
"Cc1cc(-c2[nH]c3ccc(-c4nnc(C5CCCN(C(C)C)C5)[nH]4)cc3c2C(C)C)cc(C)n1 (stereo not drawn) [Example 358, 2-(2,6-dimethylpyridin-4-yl)-3-isopropyl-5-(5-(1-isopropylpiperidin-3-yl)-4H-1,2,4-triazol-3-yl)-1H-indole]",4.9,157,1.6
"COc1ccc(-c2[nH]c3ccc(-c4cc[nH]c4)cc3c2C(C)C)cc1OC [Example 465, 2-(3,4-dimethoxyphenyl)-3-isopropyl-5-(1H-pyrrol-3-yl)-1H-indole]",305,33000,81
"COc1ccc(-c2[nH]c3ccc(-c4cnc(N5CCNCC5)cc4C)cc3c2C(C)C)cc1OC [Example 419, 2-(3,4-dimethoxyphenyl)-3-isopropyl-5-(4-methyl-6-(piperazin-1-yl)pyridin-3-yl)-1H-indole]",50,1390,14
"COc1ccc(-c2[nH]c3ccc(-c4cccc(C(=O)N5CCN(C6CCN(C)CC6)CC5)c4)cc3c2CC(F)(F)F)cc1OC [Example 37, (3-(2-(3,4-dimethoxyphenyl)-3-(2,2,2-trifluoroethyl)-1H-indol-5-yl)phenyl)(4-(1-methylpiperidin-4-yl)piperazin-1-yl)methanone]",405,2320,139
"CCc1c(-c2ccc(OC)c(OC)c2)[nH]c2ccc(-c3noc([C@H]4CCC[C@@]4(C)N)n3)cc12 [Example 442, (1R,2S)-2-(3-(2-(3,4-dimethoxyphenyl)-3-ethyl-1H-indol-5-yl)-1,2,4-oxadiazol-5-yl)-1-methylcyclopentan-1-amine]",903,4580,90
"COc1cc(-c2ccc3[nH]c(-c4ccnc5[nH]ncc45)c(C(C)C)c3c2)cnc1OC [Example 434, 4-(5-(5,6-dimethoxypyridin-3-yl)-3-isopropyl-1H-indol-2-yl)-1H-pyrazolo[3,4-b]pyridine]",124,45200,54
"CC(C)c1c(-c2ccnc3[nH]ncc23)[nH]c2ccc(-c3ccc4[nH]c(=O)cc(O)c4c3)cc12 [Example 394, 4-hydroxy-6-(3-isopropyl-2-(1H-pyrazolo[3,4-b]pyridin-4-yl)-1H-indol-5-yl)quinolin-2(1H)-one]",919,> 50000,218
"Cc1cc(-c2[nH]c3ccc(-c4nc5c(s4)CN(CC(=O)N(C)C)CC5)cc3c2C(C)C)cc(C)n1 [Example 309, 2-(2-(2-(2,6-dimethylpyridin-4-yl)-3-isopropyl-1H-indol-5-yl)-6,7-dihydrothiazolo[5,4-c]pyridin-5(4H)-yl)-N,N-dimethylacetamide]",24,5620,3.5
"CNCCNc1ccc(-c2ccc3[nH]c(-c4ccnc(C)c4)c(C(C)C)c3c2)cn1 [Example 202, N1-(5-(3-isopropyl-2-(2-methylpyridin-4-yl)-1H-indol-5-yl)pyridin-2-yl)-N2-methylethane-1,2-diamine]",11,495,1.3
"COc1ccc(-c2[nH]c3ccc(-c4nnc(CN5CCNC(=O)C5)o4)cc3c2C(C)C)cc1OC [Example 120, 4-((5-(2-(3,4-dimethoxyphenyl)-3-isopropyl-1H-indol-5-yl)-1,3,4-oxadiazol-2-yl)methyl)piperazin-2-one]",371,> 50000,222
"Cc1cc(-c2[nH]c3ccc(-c4nc5c(s4)CCN(CC(=O)N(C)C)C5)cc3c2C(C)C)cc(C)n1 [Example 329, 2-(2-(2-(2,6-dimethylpyridin-4-yl)-3-isopropyl-1H-indol-5-yl)-6,7-dihydrothiazolo[4,5-c]pyridin-5(4H)-yl)-N,N-dimethylacetamide]",20,46700,3.3
Cc1cc(-c2[nH]c3ccc(-c4nc(C(=O)N[C@H]5CC[C@H](N)CC5)co4)cc3c2C(C)C)cc(C)n1 [Example 282],72,2380,16
"Cc1cc(-c2[nH]c3ccc(-c4nnc(C5CN6CCC5CC6)o4)cc3c2C(C)C)cc(C)n1 (stereo not drawn) [Example 250, 2-(2-(2,6-dimethylpyridin-4-yl)-3-isopropyl-1H-indol-5-yl)-5-(quinuclidin-3-yl)-1,3,4-oxadiazole]",3.4,113,2.1
"COc1ccc(-c2[nH]c3ccc(-c4ccc(OC5CCN(CC(C)C)CC5)cc4)cc3c2C(C)C)cc1OC [Example 388, 2-(3,4-dimethoxyphenyl)-5-(4-((1-isobutylpiperidin-4-yl)oxy)phenyl)-3-isopropyl-1H-indole]",636,> 50000,349
"Cc1cc(-c2[nH]c3ccc(-c4nnc(C5CCCN(C(C)C)C5)o4)cc3c2CC(F)F)cc(C)n1 (stereo not drawn) [Example 328, 2-(3-(2,2-difluoroethyl)-2-(2,6-dimethylpyridin-4-yl)-1H-indol-5-yl)-5-(1-isopropylpiperidin-3-yl)-1,3,4-oxadiazole]",48,206,30
"Cc1cc(-c2[nH]c3ccc(-c4cc5c(s4)CN(C(=O)CN(C)C)CC5)cc3c2C(C)C)cc(C)n1 [Example 341, 2-(dimethylamino)-1-(2-(2-(2,6-dimethylpyridin-4-yl)-3-isopropyl-1H-indol-5-yl)-4,7-dihydrothieno[2,3-c]pyridin-6(5H)-yl)ethan-1-one]",6.4,295,5.9
"CC(C)c1c(-c2ccnc3[nH]ncc23)[nH]c2ccc(-c3nnc(CN4CCNC(=O)C4)o3)cc12 [Example 156, 4-((5-(3-isopropyl-2-(1H-pyrazolo[3,4-b]pyridin-4-yl)-1H-indol-5-yl)-1,3,4-oxadiazol-2-yl)methyl)piperazin-2-one]",1410,> 50000,212
"Cc1cc(-c2[nH]c3ccc(-c4cc5c(s4)CN(Cc4c[nH]c(C)n4)CC5)cc3c2C(C)C)cc(C)n1 [Example 343, 2-(2-(2,6-dimethylpyridin-4-yl)-3-isopropyl-1H-indol-5-yl)-6-((2-methyl-1H-imidazol-4-yl)methyl)-4,5,6,7-tetrahydrothieno[2,3-c]pyridine]",3.7,146,1.3
"COc1ccc(-c2[nH]c3ccc(-c4ccc(NCCCN(C)C)cc4)cc3c2C(C)C)cc1OC [Example 400, N1-(4-(2-(3,4-dimethoxyphenyl)-3-isopropyl-1H-indol-5-yl)phenyl)-N3,N3-dimethylpropane-1,3-diamine]",165,2660,35
"Cc1cc(-c2[nH]c3ccc(-c4cc5c(s4)CN(CC(=O)N(C)C)CC5)cc3c2C(C)C)ccn1 [Example 311, 2-(2-(3-isopropyl-2-(2-methylpyridin-4-yl)-1H-indol-5-yl)-4,7-dihydrothieno[2,3-c]pyridin-6(5H)-yl)-N,N-dimethylacetamide]",146,3350,24
"Cc1cc(-c2[nH]c3ccc(-c4nnc(C(=O)NCCCN(C)C)o4)cc3c2C(C)C)cc(C)n1 [Example 224, N-(3-(dimethylamino)propyl)-5-(2-(2,6-dimethylpyridin-4-yl)-3-isopropyl-1H-indol-5-yl)-1,3,4-oxadiazole-2-carboxamide]",11,229,2.5
"COc1ccc(-c2[nH]c3ccc(-c4nnc(C[C@@H]5CCCCN5)o4)cc3c2C(C)C)cc1OC [Example 50, (S)-2-(2-(3,4-dimethoxyphenyl)-3-isopropyl-1H-indol-5-yl)-5-(piperidin-2-ylmethyl)-1,3,4-oxadiazole]",44,1080,5.9
"Cc1cc(-c2[nH]c3ccc(-c4nnc(C5CCCC(N)C5)o4)cc3c2C(C)C)ccn1 (stereo not drawn) [Example 179, 3-(5-(3-isopropyl-2-(2-methylpyridin-4-yl)-1H-indol-5-yl)-1,3,4-oxadiazol-2-yl)cyclohexan-1-amine]",980,2790,6
"Cc1cc(-c2[nH]c3ccc(-c4nnc(C5CN6CCC5CC6)o4)cc3c2C(C)C)ccn1 (stereo not drawn) [Example 213, 2-(3-isopropyl-2-(2-methylpyridin-4-yl)-1H-indol-5-yl)-5-(quinuclidin-3-yl)-1,3,4-oxadiazole]",47,655,3.3
"Cc1cc(-c2[nH]c3ccc(-c4cnc(N)cn4)cc3c2C(C)C)cc(C)n1 [Example 307, 5-(2-(2,6-dimethylpyridin-4-yl)-3-isopropyl-1H-indol-5-yl)pyrazin-2-amine]",11,21100,18
"COc1ccc(-c2[nH]c3ccc(-c4nnc(CN5CCN(C(C)=O)CC5)o4)cc3c2C(C)C)cc1OC [Example 116, 1-(4-((5-(2-(3,4-dimethoxyphenyl)-3-isopropyl-1H-indol-5-yl)-1,3,4-oxadiazol-2-yl)methyl)piperazin-1-yl)ethan-1-one]",331,> 50000,395
"COc1ccc(-c2[nH]c3ccc(-c4ccc(NC5CCN(C(C)C)CC5)cc4)cc3c2C(C)C)cc1OC [Example 385, N-(4-(2-(3,4-dimethoxyphenyl)-3-isopropyl-1H-indol-5-yl)phenyl)-1-isopropylpiperidin-4-amine]",181,5890,30
"Cc1cc(-c2[nH]c3ccc(-c4cnc(N)nc4)cc3c2C(C)C)ccn1 [Example 193, 5-(3-isopropyl-2-(2-methylpyridin-4-yl)-1H-indol-5-yl)pyrimidin-2-amine]",264,> 50000,71
